Data as given in the supplement of paper PMC11061612.

Columns and labels:
[1] = compound: CC(=O)c1c(C)c2cnc(Nc3ccc(N4CCNCC4)cn3)nc2n(C2CCCC2)c1=O [Palbociclib]; settings: max 10 µM
Outline: (§1)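 Plates with 1536 wells received cancer cell lines in 7.5 μl of DMEM/F12 or RPMI containing 10% FBS. After 24 hours at 37°C and 5% CO2, cells were dosed for 72 hours with final DMSO typically 0.2%, and viability was read by CellTiter-Glo 2.0 luminescence scaled between blank-well and DMSO-well means. The single-agent IC50 was taken from a logistic fit of the dose responses made with a non-linear mixed effects model, that logistic curve having two parameters.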

[2] = compound: CC(C)n1c(=O)n(C)c2cnc3cc(F)c(-c4ccc(OCCCN5CCCCC5)nc4)cc3c21 [AZD1390]; settings: max 0.3 µM
Outline: as §1

[3] = compound: C1CC(C1)(C(=O)[O-])C(=O)[O-].N.N.[Pt+2] [Carboplatin]; settings: max 10 µM
Outline: as §1

[4] = compound: C[C@@H](Nc1cc(F)cc(F)c1)c1cc(C(=O)N(C)C)cc2c(=O)cc(N3CCOCC3)oc12 [AZD8186]; settings: max 10 µM
Outline: as §1

[5] = compound: Cc1cc2ncnn2cc1Nc1ncc2c(n1)n(C1CCOCC1)c(=O)n2C [AZD7648]; settings: max 10 µM
Outline: as §1

[6] = compound: COc1cc(Nc2ncc3c(n2)-c2ccc(Cl)cc2C(c2c(F)cccc2OC)=NC3)ccc1C(=O)O [Alisertib]; settings: max 10 µM
Outline: as §1

[7] = compound: CC1(C)CCC(CN2CCN(c3ccc(C(=O)NS(=O)(=O)c4ccc(NCC5CCOCC5)c([N+](=O)[O-])c4)c(Oc4cnc5[nH]ccc5c4)c3)CC2)=C(c2ccc(Cl)cc2)C1 [Venetoclax]; settings: max 1 µM
Outline: as §1

[8] = compound: CC1=C(C(=CC=C1)Cl)NC(=O)C2=CN=C(S2)NC3=CC(=NC(=N3)C)N4CCN(CC4)CCO [Dasatinib]; settings: max 2 µM
Outline: as §1

[9] = compound: C=CCn1c(=O)c2cnc(Nc3ccc(N4CCN(C)CC4)cc3)nc2n1-c1cccc(C(C)(C)O)n1 [AZD1775]; settings: max 3 µM
Outline: as §1

[10] = compound: C[C@@H](Oc1cc(-c2cnn(C3CCNCC3)c2)cnc1N)c1c(Cl)ccc(F)c1Cl [Crizotinib]; settings: max 10 µM
Outline: as §1

[11] = compound: O=c1[nH]cc(F)c(=O)[nH]1 [5-Fluorouracil]; settings: max 20 µM
Outline: as §1

[12] = compound: CC(=O)Nc1cccc(-n2c(=O)n(C3CC3)c(=O)c3c(Nc4ccc(I)cc4F)n(C)c(=O)c(C)c32)c1 [Trametinib]; settings: max 1 µM
Outline: as §1

[13] = compound: CN(C)CCCOc1ccc(-c2ccc3ncc4c(c3c2)n(C2CCOCC2)c(=O)n4C)cn1 [AZD0156]; settings: max 3 µM
Outline: as §1

[14] = compound: CCc1c2c(nc3ccc(O)cc13)-c1cc3c(c(=O)n1C2)COC(=O)[C@]3(O)CC [SN-38]; settings: max 0.3 µM
Outline: as §1

[15] = compound: NC1(c2ccc(-c3nc4ccn5c(=O)[nH]nc5c4cc3-c3ccccc3)cc2)CCC1 [MK-2206]; settings: max 10 µM
Outline: as §1

[16] = compound: CCN(CCO)CCCOc1ccc2c(Nc3cc(CC(=O)Nc4cccc(F)c4)[nH]n3)ncnc2c1 [AZD2811]; settings: max 1 µM
Outline: as §1

[17] = compound: C[C@@H](c1ccc2nccn2c1)n1nnc2ncc(-c3cnn(C)c3)nc21 [Savolitinib]; settings: max 1 µM
Outline: as §1

[18] = compound: Cc1c2c(nn1C)CSCc1cc(n(C)n1)CSc1cc(c3ccccc3c1)OCCCc1c(C(=O)O)n(C)c3c-2c(Cl)ccc13 [AZD5991]; settings: max 1 µM
Outline: as §1

[19] = compound: O=C(Nc1ccc2[nH]nc(-c3ccncc3)c2c1)[C@@H]1CCN(CC(=O)N2CCN(c3ccc(-c4ncccn4)cc3)CC2)C1; settings: max 5 µM
Outline: as §1

[20] = compound: COc1cc2ncnc(Nc3ccc(F)c(Cl)c3)c2cc1OCCCN1CCOCC1 [Gefitinib]; settings: max 10 µM
Outline: as §1

[21] = compound: COc1cccc(OCCCN)c1-c1cc(Nc2cnc(C#N)cn2)n[nH]1 [Prexasertib]; settings: max 1 µM
Outline: as §1

[22] = compound: COc1cc([C@@H]2c3cc4c(cc3[C@@H](O[C@@H]3O[C@@H]5CO[C@@H](C)O[C@H]5[C@H](O)[C@H]3O)[C@H]3COC(=O)[C@H]23)OCO4)cc(OC)c1O [Etoposide]; settings: max 10 µM
Outline: as §1

[23] = compound: CC(=O)O[C@H]1C(=O)[C@@]2(C)[C@H]([C@H](OC(=O)c3ccccc3)[C@]3(O)C[C@H](OC(=O)[C@H](O)[C@@H](NC(=O)c4ccccc4)c4ccccc4)C(C)=C1C3(C)C)[C@]1(OC(C)=O)CO[C@@H]1C[C@@H]2O [Paclitaxel]; settings: max 3 µM
Outline: as §1

[24] = compound: COc1nnc2ccc(N3CCC(c4ccc(OCCN5CCN(C)C(=O)[C@H]5C)cc4)CC3)nn12 [AZD5153]; settings: max 1 µM
Outline: as §1

[25] = compound: O=C(c1cc(Cc2n[nH]c(=O)c3ccccc23)ccc1F)N1CCN(C(=O)C2CC2)CC1 [Olaparib]; settings: max 10 µM
Outline: as §1

[26] = compound: CS(=O)(=O)CCNCc1ccc(-c2ccc3ncnc(Nc4ccc(OCc5cccc(F)c5)c(Cl)c4)c3c2)o1 [Lapatinib]; settings: max 10 µM
Outline: as §1

[27] = compound: Cn1cnc2c(F)c(Nc3ccc(Br)cc3Cl)c(C(=O)NOCCO)cc21 [Selumetinib]; settings: max 10 µM
Outline: as §1

[28] = compound: C[C@@H]1COCCN1C2=NC(=NC(=C2)C3(CC3)[S@](=N)(=O)C)C4=C5C=CNC5=NC=C4 [AZD6738]; settings: max 10 µM
Outline: as §1

[29] = compound: Cc1nc(-c2cn3c(n2)-c2ccc(-c4cnn(C(C)(C)C(N)=O)c4)cc2OCC3)n(C(C)C)n1 [Taselisib]; settings: max 10 µM
Outline: as §1

[30] = compound: C1CN(CCC1(C(=O)N[C@@H](CCO)C2=CC=C(C=C2)Cl)N)C3=NC=NC4=C3C=CN4 [AZD5363]; settings: max 10 µM
Outline: as §1

[31] = compound: CN(CC[C@H](CSC1=CC=CC=C1)NC2=C(C=C(C=C2)S(=O)(=O)NC(=O)C3=CC=C(C=C3)N4CCC(CC4)[C@H](C5=CC=CC=C5C6=CC=C(C=C6)Cl)O)S(=O)(=O)C(F)(F)F)CCO [AZD4320]; settings: max 1 µM
Outline: as §1

[32] = compound: N#Cc1cnc(Nc2cc(NC[C@H]3CNCCO3)c(C(F)(F)F)cn2)cn1 [SRA737]; settings: max 10 µM
Outline: as §1

[33] = compound: Nc1ccn([C@@H]2O[C@H](CO)[C@@H](O)C2(F)F)c(=O)n1 [Gemcitabine]; settings: max 0.3 µM
Outline: as §1

[34] = compound: COc1cccc2c1C(=O)c1c(O)c3c(c(O)c1C2=O)C[C@@](O)(C(=O)CO)C[C@@H]3O[C@H]1C[C@H](N)[C@H](O)[C@H](C)O1 [Doxorubicin]; settings: max 1 µM
Outline: as §1

[35] = compound: CC1=CN2[C@@H](C1)C=NC3=CC(=C(C=C3C2=O)OC)OCCCCCOC4=C(C=C5C(=C4)N=C[C@@H]6CC(=CN6C5=O)C)OC [SG3199]; settings: max 0.001 µM
Outline: as §1

Cell Line | IC50, cell viability 72 h [1] | IC50, cell viability 72 h [2] | IC50, cell viability 72 h [3] | IC50, cell viability 72 h [4] | IC50, cell viability 72 h [5] | IC50, cell viability 72 h [6] | IC50, cell viability 72 h [7] | IC50, cell viability 72 h [8] | IC50, cell viability 72 h [9] | IC50, cell viability 72 h [10] | IC50, cell viability 72 h [11] | IC50, cell viability 72 h [12] | IC50, cell viability 72 h [13] | IC50, cell viability 72 h [14] | IC50, cell viability 72 h [15] | IC50, cell viability 72 h [16] | IC50, cell viability 72 h [17] | IC50, cell viability 72 h [18] | IC50, cell viability 72 h [19] | IC50, cell viability 72 h [20] | IC50, cell viability 72 h [21] | IC50, cell viability 72 h [22] | IC50, cell viability 72 h [23] | IC50, cell viability 72 h [24] | IC50, cell viability 72 h [25] | IC50, cell viability 72 h [26] | IC50, cell viability 72 h [27] | IC50, cell viability 72 h [28] | IC50, cell viability 72 h [29] | IC50, cell viability 72 h [30] | IC50, cell viability 72 h [31] | IC50, cell viability 72 h [32] | IC50, cell viability 72 h [33] | IC50, cell viability 72 h [34] | IC50, cell viability 72 h [35]
P31-FUJ (Acute Myeloid Leukemia) | > 10000 nM | > 300 nM | > 10000 nM | > 10000 nM | > 10000 nM | 1060 nM | 758 nM | > 2000 nM | 83.1 nM | 1740 nM | > 20000 nM | 616 nM | > 3000 nM | 11.7 nM | 1680 nM | 24 nM | > 1000 nM | 157 nM | 1570 nM | > 10000 nM | 2.72 nM | 2760 nM | 5.09 nM | 148 nM | > 10000 nM | > 10000 nM | 8970 nM | 1290 nM | 3310 nM | 2410 nM | 243 nM | 534 nM | 179 nM | 255 nM | > 1 nM
SK-LMS-1 (Other Solid Carcinomas) | > 10000 nM | > 300 nM | > 10000 nM | 7780 nM | > 10000 nM | 8330 nM | > 1000 nM | > 2000 nM | 1630 nM | 9410 nM | > 20000 nM | 484 nM | > 3000 nM | 8.12 nM | > 10000 nM | > 1000 nM | > 1000 nM | > 1000 nM | 4530 nM | > 10000 nM | 386 nM | 4430 nM | 16.1 nM | > 1000 nM | > 10000 nM | > 10000 nM | > 10000 nM | > 10000 nM | 4110 nM | > 10000 nM | > 1000 nM | > 10000 nM | 17.4 nM | 511 nM | > 1 nM
SK-MEL-1 (Melanoma) | > 10000 nM | > 300 nM | > 10000 nM | > 10000 nM | > 10000 nM | > 10000 nM | > 1000 nM | > 2000 nM | > 3000 nM | > 10000 nM | > 20000 nM | 5.25 nM | > 3000 nM | 135 nM | > 10000 nM | > 1000 nM | > 1000 nM | > 1000 nM | 846 nM | > 10000 nM | 659 nM | > 10000 nM | > 3000 nM | > 1000 nM | > 10000 nM | > 10000 nM | 509 nM | > 10000 nM | > 10000 nM | > 10000 nM | > 1000 nM | > 10000 nM | > 300 nM | > 1000 nM | > 1 nM
SK-UT-1 (Other Solid Carcinomas) | > 10000 nM | > 300 nM | > 10000 nM | > 10000 nM | > 10000 nM | > 10000 nM | > 1000 nM | > 2000 nM | 1100 nM | > 10000 nM | > 20000 nM | > 1000 nM | > 3000 nM | 22.7 nM | > 10000 nM | > 1000 nM | > 1000 nM | > 1000 nM | > 5000 nM | > 10000 nM | 21.6 nM | 3400 nM | 28.2 nM | 694 nM | > 10000 nM | > 10000 nM | > 10000 nM | 4170 nM | 8850 nM | > 10000 nM | > 1000 nM | 3420 nM | 9.12 nM | 971 nM | > 1 nM
SLVL (B-Cell Non-Hodgkin's Lymphoma) | > 10000 nM | > 300 nM | > 10000 nM | > 10000 nM | > 10000 nM | 148 nM | > 1000 nM | 1810 nM | 836 nM | 7080 nM | 1560 nM | 402 nM | > 3000 nM | 2.35 nM | > 10000 nM | 195 nM | > 1000 nM | > 1000 nM | > 5000 nM | > 10000 nM | 19.9 nM | 850 nM | 6.06 nM | 101 nM | > 10000 nM | > 10000 nM | 9510 nM | 3760 nM | 5560 nM | 4580 nM | 428 nM | 2520 nM | 15.1 nM | 76.8 nM | > 1 nM
